Where only a bound is given, the exact number is not on record here.

Series [1] deals with Calu-6. Description: Cell viability assay for additional cell lines: Calu-6. Format: cell-based. The conditions noted are these: Homo sapiens, 216 h, 9-day treatment, average of n=2, read-out: MTAP-WT GI50. Here is the method:
(§1) Some Compounds of the Disclosure were tested in Calu-6 (Vendor: ATCC; Cat #HTB-56; Description: lung, adenocarcinoma), LU99 (Vendor: JCRB; Cat #JCRB0080; Description: non-small cell lung cancer), SW780 (Vendor: ATCC; Cat #CRL-2169; Description: bladder urothelial carcinoma), BxPC-3 (Vendor: ATCC; Cat #CRL-1687; Description: pancreatic adenocarcinoma), Panc-1 (Vendor: ATCC; Cat #CRL-1469 Description: pancreatic adenocarcinoma), AsPC-1 (Vendor: ATCC; Cat #CRL-1682; Description: pancreatic adenocarcinoma), Calu-6 (Vendor: ATCC; Cat #HTB-56; Description: non-small cell lung cancer), and U-2 OS (Vendor: ATCC; Cat #HTB-96; Description: osteosarcoma), cellular viability assays according to the general protocol. Seeded cells into 96-well plate and incubated overnight. Seeded an additional 10 wells per cell line in an additional 96-well plate for assessing Time Zero luminescence and incubated overnight. To treatment plates, added compounds into each well using Tecan D300e dispenser (nine three-fold dilutions starting at 10 μM) and incubated for 9 days. Time Zero (no compound treatment, luminescence assessed on day 1) and 9-day treatment (luminescence assessed on day 10) plates were assessed using the same CellTiter-Glo® substrate protocol. […] Recorded luminescence with Perkin Elmer Envision 2105 machine. Analyzed the data with GraphPad software. […]

For series [2], the system named is LU99. Description: Cell viability assay for additional cell lines: LU99. It is filed as cell-based. The conditions noted are these: for GI50: Homo sapiens, Lu-99, 216 h, 9-day treatment, average of n=2, read-out: MTAP-Deleted GI50. Here is the method:
Some Compounds of the Disclosure were tested in Calu-6 (Vendor: ATCC; Cat #HTB-56; Description: lung, adenocarcinoma), LU99 (Vendor: JCRB; Cat #JCRB0080; Description: non-small cell lung cancer), SW780 (Vendor: ATCC; Cat #CRL-2169; Description: bladder urothelial carcinoma), BxPC-3 (Vendor: ATCC; Cat #CRL-1687; Description: pancreatic adenocarcinoma), Panc-1 (Vendor: ATCC; Cat #CRL-1469 Description: pancreatic adenocarcinoma), AsPC-1 (Vendor: ATCC; Cat #CRL-1682; Description: pancreatic adenocarcinoma), Calu-6 (Vendor: ATCC; Cat #HTB-56; Description: non-small cell lung cancer), and U-2 OS (Vendor: ATCC; Cat #HTB-96; Description: osteosarcoma), cellular viability assays according to the general protocol. Seeded cells into 96-well plate and incubated overnight. Seeded an additional 10 wells per cell line in an additional 96-well plate for assessing Time Zero luminescence and incubated overnight. To treatment plates, added compounds into each well using Tecan D300e dispenser (nine three-fold dilutions starting at 10 μM) and incubated for 9 days. Time Zero (no compound treatment, luminescence assessed on day 1) and 9-day treatment (luminescence assessed on day 10) plates were assessed using the same CellTiter-Glo® substrate protocol. Thawed CellTiter-Glo® Buffer and lyophilized CellTiter-Glo® substrate and equilibrated to room temperature prior to use. The DMSO concentration was normalized to 0.137%. Transferred 100 ml CellTiter-Glo® Buffer into amber bottle containing CellTiter-Glo® substrate to reconstitute the lyophilized enzyme/substrate mixture. For Time Zero and 9-day treatment plates, removed all plating media. Added 100 μl fresh media/well. Added 100 μl CellTiter-Glo® Reagent per well. Mixed contents for 10 min on an orbital shaker to lyse cells. Recorded luminescence with Perkin Elmer Envision 2105 machine. Analyzed the data with GraphPad software. Potency fold difference is defined as GI50 (AMG193)/GI50 (Ca-47) for the MTAP^del cell line of interest. The structure of AMG193 is as follows.

Series [3] can be described thus: Hepatocyte stability assay. It is filed as in vitro ADME. The conditions noted are these: Rat hepatocytes; 1 μM substrate. On the procedure: BioreclamationIVT (Baltimore, MD) provided the cryopreserved hepatocytes, hepatocyte thawing (HT) medium, and Krebs-Henseleit buffer (KHB) medium. The stock solution concentration was 1 M in DMSO and was then diluted further in acetonitrile/water (1:1 v/v). All other chemicals were purchased from Sigma-Aldrich (St. Louis, MO) or Thermo Fisher Scientific (Waltham, MA).
The quench solution used to stop reactions in the hepatocyte incubations was comprised of 100% (v/v) acetonitrile. Internal Standard/Quench (IS/Q) solution used to stop reactions with the positive control also contained 200 nM Labetalol.
Metabolic Stability in Cryopreserved Hepatocytes: Test compounds, or the positive control metabolic substrate, was incubated in suspensions of cryopreserved hepatocytes at a final concentration of 1 μM. Vials containing cryopreserved hepatocytes were removed from liquid nitrogen and immediately immersed in a 37° C. water bath. The vials were swirled gently until the contents had thawed. […] The viabilities of all cell preparations were >85%, assessed by Trypan blue dye exclusion.
For incubations, aliquots of hepatocyte suspension (250 μL containing a cell concentration of 2×10^6 cells/mL) were added to 250 μL of 2 μM substrate (test compound or positive control) in supplemented KHB in duplicate wells in a 24-well plate. […] Samples were injected and analyzed with methods described below. […]

Series [4] can be described thus: Sprague-Dawley Rat PK. It is filed as in vivo. The note with it: for BPR: Blood plasma ratio; for clearance / half-life / Vd: IV 0.33 mg/Kg; for clearance: plasma clearance, read-out: Observed CLp (converted); for Fold IVIVc: [Observed CLp/[BPR]/[Predicted Hepatocyte CL]; for half-life / Vd: plasma; for Vd: read-out: Vss. From the text: The following abbreviations are defined as follows for table 5. BPR: Blood plasma ratio, CLp: plasma clearance.
Cell viability assay data for LU99, SW780, BxPC-3, Panc-1, AsPC-1, Calu-6 and U-2 OS for AMG-193 and example Ca-47 are provided in Table 4. The following abbreviations are defined as follows for table 5. BPR: Blood plasma ratio, CLp: plasma clearance. Fold IVIVc=[Observed CLp/[BPR]/[Predicted Hepatocyte CL]

Series [5] concerns AsPC-1. Nature of the series: Cell viability assay for additional cell lines: AsPC-1. Format: cell-based. The conditions noted are these: Homo sapiens, ASPC1, 216 h, 9-day treatment, average of n=2, read-out: MTAP-WT GI50. On the procedure:
as §1

For `Nc1nc2cnc(C(=O)N3CCOC[C@@H]3c3ccc(C(F)(F)F)cc3)cc2c2c1COC2` [AMG193, reference compound], in series [1], the GI50 (in general, the concentration at which growth is held to half of that of the control) was found to be 7 µM. Moreover, the GI50 in series [2] was determined as 45 nM. Moreover, the “Predicted Hepatocyte CL” value in series [3] was 2.46 L/h/kg. Besides, in series [4], the BPR worked out at 0.95, the clearance was 37.7 mL/min/kg, the “Fold IVIVc” value was 1x and the half-life (usually how long it takes for the measured level to halve) was 66 min. The Vd in series [4] was 1.82 L/kg. For the same compound, the GI50 in series [5] is over 10000 nM.

Turning to `Nc1nc2cnc(C(=O)N3CCC[C@@H]4Oc5cc(C(F)(F)F)cc(F)c5[C@@H]43)cc2c2c1COC2` [Example Ca-47, (4-amino-1,3-dihydrofuro[3,4-c][1,7]naphthyridin-8-yl)((4aS,9bS)-9-fluoro-7-(trifluoromethyl)-3,4,4a,9b-tetrahydrobenzofuro[3,2-b]pyridin-1(2H)-yl)methanone], the GI50 in series [1] was 1.6 µM. The compound further showed a Potency fold difference in series [2] (GI50 (AMG193)/GI50 (Ca-47)) of 5. Further, in series [2], the GI50 worked out at 9 nM. Further, the “Predicted Hepatocyte CL” value in series [3] was 2.53 L/h/kg. Moreover, in series [4], the BPR was found to be 0.89, the clearance was 14.2 mL/min/kg, the “Fold IVIVc” value is 0.37x and the half-life is 150 min. Further, the Vd in series [4] was found to be 2.08 L/kg. The GI50 in series [5] was 2800 nM.

Source of the values: patent publication US20250154172A1, “PRMT5 INHIBITORS AND USES THEREOF” (Gilead Sciences, Inc., priority 2023, published 2025).
